Results reported in patent US5767149A, “α-glycosyl-L-ascorbic acid, and it's preparation and uses” (priority 1989, dated 1998).

Legend:
[1] = Solubility in solvents; type: physicochemical
[2] = Coloring reaction: direct reducing activity on 2,6-dichlorophenolindophenol
[3] = system: dd mice; assay: Acute toxicity, oral; type: in vivo, mouse
From the text: A high-purity α-D-glucosyl-L-ascorbic acid specimen, prepared by the method in Experiment 2(2), was orally administered to 7 week-old dd mice for acute toxicity test. As the result, no mouse died when administered with up to […] of the specimen, and higher dose was difficult.

[4] = Hydrolysis by 1N hydrochloric acid at 100° C.; type: physicochemical; details: 5 minutes
Procedure: (§1) (a) Hydrolyzable by α-glucosidase or by treatment with 1N hydrochloric acid at 100° C. for 5 minutes to form L-ascorbic acid and D-glucose at a molar ratio of 1:1.

[5] = system: cytochrome C; assay: Reducing activity on cytochrome C; type: biochemical; details: for Reducing activity on cytochrome C: intact sample, 10 microliters of 10 mM, pH 7.8
[6] = system: human fibroblast cell; assay: Collagenic activity in human fibroblast cell; type: cell-based; details: 0.25 mM, 24 hours
Procedure: (b) Collagenic activity 2-O-α-D-Glucosyl-L-ascorbic acid, 6-O-α-D-glucosyl-L-ascorbic acid and L-ascorbic acid were tested for their collagenic activity. A human fibroblast cell, cell density of 7×10^4 cells/plate, was cultured in Eagle's minimal essential medium supplemented with 10% FCS for 1 week, added with 4 μCi/ml ^3 H-proline, 20 μg/ml of β-aminopropionitrile and 0.25 mM of either sample, and cultured for an additional 24 hours. The resultant was then added with 10 w/v % trichloroacetic acid to recover the collagenous element in the culture, followed by lyophilization. The resultant specimen was dissolved, and the solution was adjusted to an appropriate pH, treated with a collagenase (Type III) at 37° C. for 90 minutes, and centrifuged. Collagenic activity was estimated by determining the radio activity in the supernatant.

[7] = system: α-glucosidase; assay: Hydrolysis by α-glucosidase; type: biochemical; details: forms L-ascorbic acid and D-glucose, molar ratio 1:1
Procedure: as §1

[8] = system: β-glucosidase; assay: Hydrolysis by β-glucosidase; type: biochemical
From the text: (b) Unhydrolyzable by β-glucosidase.

[9] = physchem; type: physicochemical; details: for Remaining ratio: 0 min, 70 uM; for remaining at 0.25 h, 70 µM / remaining at 0.5 h, 70 µM / remaining at 1 h, 70 µM / remaining at 21 h, 70 µM: water
Procedure: (c) 2-O-α-D-Glucosyl-L-ascorbic acid was compared respectively to the 6-O-α-D-glucosyl-L-ascorbic acid disclosed in Japanese Patent Publication No. 38,158/73, and L-ascorbic acid for their stability in aqueous solution. More particularly, each sample was adjusted to a concentration of 70 micromoles and to pH 7.0 or 2.0, placed in a cuvette, and measured for its absorbance at either 260 nm and pH 7.0 or at 245 nm and pH 2.0 while keeping the solution at 20° C. The remaining ratio (%) was calculated with the absorbance.

Remaining ratio ([9]; pH 2) [%] | Remaining ratio ([9]; pH 7) [%] | remaining at 0.25 h, 70 µM ([9]; pH 2) [%] | remaining at 0.5 h, 70 µM ([9]; pH 2) [%] | remaining at 1 h, 70 µM ([9]; pH 2) [%] | remaining at 21 h, 70 µM ([9]; pH 2) [%] | remaining at 0.25 h, 70 µM ([9]; pH 7) [%] | remaining at 0.5 h, 70 µM ([9]; pH 7) [%] | remaining at 1 h, 70 µM ([9]; pH 7) [%] | remaining at 21 h, 70 µM ([9]; pH 7) [%] | SMILES | Reducing activity on cytochrome C [5] | Collagenic activity [6] | further results
100 | 100 | 99 | 98 | 91 | 55 | 58 | 36 | 17 | 8 | O=C1O[C@H]([C@@H](O)CO[C@H]2O[C@H](CO)[C@@H](O)[C@H](O)[C@H]2O)C(O)=C1O [6-O-α-D-glucosyl-L-ascorbic acid] | unlike 6-O-α-D-glucosyl-L-ascorbic acid and L-ascorbic acid, 2-O-α-D-glucosyl-L-ascorbic acid exhibited no reducing activity | slightly inferior in collagenic activity to that of 2-O-α-D-glucosyl-L-ascorbic acid | 
100 | 100 | 99 | 97 | 87 | 10 | 47 | 20 | 8 | 2 | O=C1O[C@H]([C@@H](O)CO)C(O)=C1O [L-ascorbic acid] | unlike 6-O-α-D-glucosyl-L-ascorbic acid and L-ascorbic acid, 2-O-α-D-glucosyl-L-ascorbic acid exhibited no reducing activity |  | 

SMILES | Remaining ratio ([9]; pH 2) [%] | Remaining ratio ([9]; pH 7) [%] | remaining at 0.25 h, 70 µM ([9]; pH 2) [%] | remaining at 0.5 h, 70 µM ([9]; pH 2) [%] | remaining at 1 h, 70 µM ([9]; pH 2) [%] | remaining at 21 h, 70 µM ([9]; pH 2) [%] | remaining at 0.25 h, 70 µM ([9]; pH 7) [%] | remaining at 0.5 h, 70 µM ([9]; pH 7) [%] | remaining at 1 h, 70 µM ([9]; pH 7) [%] | remaining at 21 h, 70 µM ([9]; pH 7) [%] | Reducing activity on cytochrome C [5] | Collagenic activity [6] | further results
O=C1O[C@H]([C@@H](O)CO)C(O)=C1O[C@H]1O[C@H](CO)[C@@H](O)[C@H](O)[C@H]1O [2-O-α-D-glucosyl-L-ascorbic acid] | 100 | 100 | 100 | 100 | 100 | 100 | 100 | 100 | 100 | 100 | no reducing activity | the same collagenic activity as that of L-ascorbic acid | Solubility ([1]; 0.1N acetic acid): Readily soluble; Solubility ([1]; 0.1N sodium hydroxide): Readily soluble; Solubility ([1]; benzene): insoluble; Solubility ([1]; chloroform): insoluble; Solubility ([1]; ethanol): soluble; Solubility ([1]; ether): insoluble; Solubility ([1]; methanol): soluble; Solubility ([1]; water): Readily soluble; Direct reducing activity (2,6-dichlorophenolindophenol) [2]: no direct reducing activity, and not reducing and decoloring 2,6-dichlorophenolindophenol; Highest dose administered without death ([3]; 7 week-old dd mice, higher dose was difficult): ≥ 5 g; Mortality ([3]; 7 week-old dd mice, up to 5 g): no mouse died; Toxicity ([3]; dd mice): extremely low in toxicity; Hydrolysis by acid [4]: Hydrolyzable; Reducing activity on cytochrome C after hydrolysis ([5]; hydrolyzed by α-glucosidase specimen): exhibited a reducing activity; Hydrolysis by α-glucosidase [7]: Hydrolyzable; Hydrolysis by β-glucosidase [8]: Unhydrolyzable; Stability in aqueous solution [9]: extremely stable in aqueous solution
